Results taken from PubChem BioAssay AID330 (DTP/NCI, 2004).
Values joined by “and” are separate entries in the source; they are usually repeats but may differ in a detail not shown here. Equal values may be shown once. Inconclusive results and toxic doses are left out. The calls were made as follows: active = survival T/C of 150% or more; inactive = T/C below 125% in these data. Numbered stars: 1 amine (or outer) side, 2 acyl side, 3 side chain; on linkers, the order of the positions; unused ones are H or OH. Peptide text beside a SMILES is read from it. CO = O=C([*:1])[*:2]

System: P388 leukemia ip, CD2F1 mice, survival T/C
Assay: NCI In Vivo Anticancer Drug Screen. Data for tumor model P388 Leukemia (intraperitoneal) in CD2F1 (CDF1) mice
Conditions: endpoint: median survival time, higher = longer survival
Outline: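 Mice carrying the transplanted tumor received test compound or vehicle. Survival was recorded in each group, and the value is the treated-group measurement divided by that of the vehicle-treated control group.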

[1] = dose: 50.0 mg/kg/injection, schedule: Q01DX005 (ip), vehicle: saline with Tween-80
[2] = dose: 100.0 mg/kg/injection, schedule: Q01DX005 (ip), vehicle: saline with Tween-80
[3] = dose: 200.0 mg/kg/injection, schedule: Q01DX005 (ip), vehicle: saline with Tween-80
[4] = dose: 50.0 mg/kg/injection, schedule: Q01DX009 (ip), vehicle: saline with Tween-80
[5] = dose: 100.0 mg/kg/injection, schedule: Q01DX009 (ip), vehicle: saline with Tween-80
[6] = dose: 200.0 mg/kg/injection, schedule: Q01DX009 (ip), vehicle: saline with Tween-80
[7] = dose: 60.0 mg/kg/injection, schedule: Q01DX005 (ip), vehicle: saline with Tween-80
[8] = dose: 120.0 mg/kg/injection, schedule: Q01DX005 (ip), vehicle: saline with Tween-80
[9] = dose: 240.0 mg/kg/injection, schedule: Q01DX005 (ip), vehicle: saline with Tween-80
[10] = dose: 50.0 mg/kg/injection, schedule: Q01DX009 (ip), vehicle: Klucel (hydroxypropylcellulose) (HPC)
[11] = dose: 50.0 mg/kg/injection, schedule: Q01DX005 (ip), vehicle: Klucel (hydroxypropylcellulose) (HPC)
[12] = dose: 100.0 mg/kg/injection, schedule: Q01DX005 (ip), vehicle: Klucel (hydroxypropylcellulose) (HPC)
[13] = dose: 200.0 mg/kg/injection, schedule: Q01DX005 (ip), vehicle: Klucel (hydroxypropylcellulose) (HPC)

Measured: T/C

C=C(C)[C@H]1CN[C@H](C(=O)O)[C@H]1CC(=O)O
inactive: dose: 0.62 mg/kg/injection, schedule: Q01DX005 (ip), vehicle: saline 98 % of control | dose: 1.25 mg/kg/injection, schedule: Q01DX005 (ip), vehicle: saline 92 % of control | dose: 2.5 mg/kg/injection, schedule: Q01DX005 (ip), vehicle: saline 99 % of control and 92 % of control | dose: 5.0 mg/kg/injection, schedule: Q01DX005 (ip), vehicle: saline 93 % of control and 96 % of control | dose: 10.0 mg/kg/injection, schedule: Q01DX005 (ip), vehicle: saline 99 % of control and 101 % of control | dose: 20.0 mg/kg/injection, schedule: Q01DX005 (ip), vehicle: saline 100 % of control and 116 % of control | dose: 40.0 mg/kg/injection, schedule: Q01DX005 (ip), vehicle: saline 105 % of control

CC(C)(C)/C(=N\Nc1ccc([N+](=O)[O-])cc1[N+](=O)[O-])c1ccccc1
inactive: dose: 3.13 mg/kg/injection, schedule: Q01DX001 (ip), vehicle: saline with Tween-80 91 % of control | dose: 6.25 mg/kg/injection, schedule: Q01DX001 (ip), vehicle: saline with Tween-80 116 % of control | dose: 12.5 mg/kg/injection, schedule: Q01DX001 (ip), vehicle: saline with Tween-80 95 % of control

CCCCCCCCCCCC1=C(O)C(=O)C(I)=C(O)C1=O
inactive: [1] 108 % of control | [2] 100 % of control and 108 % of control | [3] 108 % of control

O=C(O)c1cccnn1
inactive: [4] 90 % of control | [5] 90 % of control

Cc1ccc(C)c2c1C(=O)c1c(C)ccc(C)c1C2(O)C#Cc1ccccc1
inactive: [4] 98 % of control | [5] 89 % of control | [6] 89 % of control

O=C(Cc1n[nH]c(=S)nc1CC(=O)c1ccccc1)c1ccccc1
inactive: [7] 98 % of control | [8] 97 % of control | [9] 105 % of control

O=C1CCCCC(=O)CS(=O)(=O)C1
inactive: [4] 110 % of control | [5] 107 % of control | [6] 103 % of control

O=C(O)/C=C/c1ccc([N+](=O)[O-])cc1
inactive: [5] 100 % of control | [6] 105 % of control

COC(NC(N)=O)C(=O)O (stereo not drawn)
inactive: [4] 99 % of control | [5] 99 % of control | [6] 99 % of control

Nc1cc2c(=O)c3cc(Cl)cc(Cl)c3[nH]c2c2c1C(=O)c1ccccc1C2=O
inactive: [10] 99 % of control | dose: 100.0 mg/kg/injection, schedule: Q01DX009 (ip), vehicle: Klucel (hydroxypropylcellulose) (HPC) 105 % of control | dose: 200.0 mg/kg/injection, schedule: Q01DX009 (ip), vehicle: Klucel (hydroxypropylcellulose) (HPC) 100 % of control

O=C1OCC2=Nc3cccc4cccc(c34)N12
inactive: [11] 101 % of control | [12] 94 % of control | [13] 98 % of control

O=c1nc2n(CCO)c3ccccc3cc-2c(=O)[nH]1
inactive: dose: 60.0 mg/kg/injection, schedule: Q01DX005 (ip), vehicle: saline 96 % of control | dose: 120.0 mg/kg/injection, schedule: Q01DX005 (ip), vehicle: saline 95 % of control

CC(C)C(NC(=O)C(CCCN=C(N)N)NC(=O)NC(Cc1ccccc1)C(=O)O)C(=O)NC(C=O)Cc1ccccc1 (stereo not drawn) ({Phe-CO}-Arg-Val-Phe-aldehyde; configuration not given here)
inactive: dose: 8.25 mg/kg/injection, schedule: Q01DX005 (ip), vehicle: Klucel (hydroxypropylcellulose) (HPC) 95 % of control | dose: 8.75 mg/kg/injection, schedule: Q01DX005 (ip), vehicle: Klucel (hydroxypropylcellulose) (HPC) 99 % of control | dose: 16.5 mg/kg/injection, schedule: Q01DX005 (ip), vehicle: Klucel (hydroxypropylcellulose) (HPC) 92 % of control | dose: 17.5 mg/kg/injection, schedule: Q01DX005 (ip), vehicle: Klucel (hydroxypropylcellulose) (HPC) 99 % of control | dose: 33.0 mg/kg/injection, schedule: Q01DX005 (ip), vehicle: Klucel (hydroxypropylcellulose) (HPC) 93 % of control | dose: 35.0 mg/kg/injection, schedule: Q01DX005 (ip), vehicle: Klucel (hydroxypropylcellulose) (HPC) 93 % of control | dose: 66.0 mg/kg/injection, schedule: Q01DX005 (ip), vehicle: Klucel (hydroxypropylcellulose) (HPC) 92 % of control | dose: 70.0 mg/kg/injection, schedule: Q01DX005 (ip), vehicle: Klucel (hydroxypropylcellulose) (HPC) 87 % of control

CSc1cnnc2ccccc12
inactive: dose: 12.5 mg/kg/injection, schedule: Q01DX009 (ip), vehicle: Klucel (hydroxypropylcellulose) (HPC) 100 % of control and 95 % of control | dose: 25.0 mg/kg/injection, schedule: Q01DX009 (ip), vehicle: Klucel (hydroxypropylcellulose) (HPC) 100 % of control and 109 % of control and 88 % of control | [10] 100 % of control and 87 % of control

CNC(=S)OCCn1c([N+](=O)[O-])cnc1C
inactive: dose: 100.0 mg/kg/injection, schedule: Q01DX001 (ip), vehicle: saline with Tween-80 92 % of control | dose: 200.0 mg/kg/injection, schedule: Q01DX001 (ip), vehicle: saline with Tween-80 106 % of control | dose: 400.0 mg/kg/injection, schedule: Q01DX001 (ip), vehicle: saline with Tween-80 105 % of control

CCOC(=O)/C(=N/NS(=O)(=O)c1c(C)cc(C)cc1C)c1ccco1
inactive: [4] 113 % of control | [5] 106 % of control | [6] 104 % of control

C[n+]1c2ccccc2nc2c(N)cc(N)cc21
inactive: dose: 31.3 mg/kg/injection, schedule: Q04DX003 (ip), vehicle: saline sonified 104 % of control | dose: 83.0 mg/kg/injection, schedule: Q04DX003 (ip), vehicle: saline with Tween-80 113 % of control | dose: 125.0 mg/kg/injection, schedule: Q04DX003 (ip), vehicle: saline with Tween-80 122 % of control | dose: 188.0 mg/kg/injection, schedule: Q04DX003 (ip), vehicle: saline with Tween-80 100 % of control

CC1(C)C(=S)C(C)(C)C1=S
inactive: [11] 104 % of control | [12] 104 % of control | [13] 108 % of control

Cc1ccc(N2C(=O)CC3(CCCCC3)C2=O)cc1[N+](=O)[O-]
inactive: dose: 100.0 mg/kg/injection, schedule: Q04DX003 (ip), vehicle: Klucel (hydroxypropylcellulose) (HPC) 93 % of control | dose: 200.0 mg/kg/injection, schedule: Q04DX003 (ip), vehicle: Klucel (hydroxypropylcellulose) (HPC) 97 % of control | dose: 400.0 mg/kg/injection, schedule: Q04DX003 (ip), vehicle: Klucel (hydroxypropylcellulose) (HPC) 99 % of control

CCOC(=O)c1nc(C(Br)(Br)Br)[nH]c(=O)c1C
inactive: dose: 6.25 mg/kg/injection, schedule: Q01DX009 (ip), vehicle: distilled water + Tween-80 102 % of control | dose: 12.5 mg/kg/injection, schedule: Q01DX009 (ip), vehicle: distilled water + Tween-80 113 % of control | dose: 25.0 mg/kg/injection, schedule: Q01DX009 (ip), vehicle: distilled water + Tween-80 116 % of control | dose: 50.0 mg/kg/injection, schedule: Q01DX009 (ip), vehicle: distilled water + Tween-80 113 % of control | dose: 100.0 mg/kg/injection, schedule: Q01DX009 (ip), vehicle: distilled water + Tween-80 113 % of control

O=C1CCC(c2n[nH]c(=S)o2)N1Cc1ccccc1 (stereo not drawn)
inactive: [7] 98 % of control | [8] 100 % of control | [9] 103 % of control

C=C(Cl)CSC(=S)N1CCOCC1
inactive: [1] 101 % of control and 102 % of control and 96 % of control | [2] 105 % of control and 107 % of control and 109 % of control | [3] 101 % of control and 120 % of control and 97 % of control

COc1ccc2[nH]c3cc4ccncc4cc3c2c1
inactive: dose: 25.0 mg/kg/injection, schedule: Q04DX002 (ip), vehicle: saline with Tween-80 122 % of control | dose: 50.0 mg/kg/injection, schedule: Q04DX002 (ip), vehicle: saline with Tween-80 97 % of control | dose: 100.0 mg/kg/injection, schedule: Q04DX002 (ip), vehicle: saline with Tween-80 95 % of control | dose: 200.0 mg/kg/injection, schedule: Q04DX002 (ip), vehicle: saline with Tween-80 97 % of control

Oc1ccc(N=Nc2nccs2)c(O)c1
inactive: [4] 96 % of control | [5] 93 % of control | [6] 99 % of control

CN1C=c2c3c(ccc2=C2C=CC4C=C5OCOC5=CC4=C21)OCO3 (stereo not drawn)
inactive: dose: 4.0 mg/kg/injection, schedule: Q01DX009 (ip), vehicle: saline with Tween-80 113 % of control | dose: 8.0 mg/kg/injection, schedule: Q01DX009 (ip), vehicle: saline with Tween-80 107 % of control | dose: 16.0 mg/kg/injection, schedule: Q01DX009 (ip), vehicle: saline with Tween-80 110 % of control

CC1=C(C2CO2)C(=O)c2ccccc2C1=O (stereo not drawn)
inactive: dose: 1.56 mg/kg/injection, schedule: Q01DX005 (ip), vehicle: Klucel (hydroxypropylcellulose) (HPC) 104 % of control and 107 % of control | dose: 3.12 mg/kg/injection, schedule: Q01DX005 (ip), vehicle: Klucel (hydroxypropylcellulose) (HPC) 103 % of control and 104 % of control | dose: 6.25 mg/kg/injection, schedule: Q01DX005 (ip), vehicle: Klucel (hydroxypropylcellulose) (HPC) 99 % of control and 100 % of control and 94 % of control
